Assay results from US7893199B2, “Peptides having neutrophil-stimulating activity” (National University Corporation Gunma University, priority 2006, dated 2011).
Like-named read-outs stand apart in the source and are kept apart here. Where a SMILES comes first, the peptide text is derived from it. Where no end group is shown, it is not given here.

Columns and labels:
[1] = tested on: HL-60 cells differentiated into the neutrophil-like cells; experiment: β-hexosaminidase-secreting activity of neutrophil-like differentiated HL-60 cells; format: cell-based, human; details: for Activity (β-hexosaminidase-secreting activity class): lowest concentration class at which secretion was confirmed
Excerpt: (1) Culture of Cell and Differentiation Into Neutrophil-like Cell
In this time, the cells were subcultured at a cell density of 1.0×10^5 cells/ml to 1.5×10^6 cells/ml, the number of cells was counted using a microscope, and the state of the cells was also confirmed.
The HL-60 cells were differentiated into neutrophil-like cells by setting the cell density in the flask to about 1.0×10^6 cells/ml, adding dibutylyl-cAMP (db-cAMP) as a differentiation-inducing agent so as to have a final concentration of 500 μM, and incubating the cells in the presence of CO2 at 37° C. for 3 days.
(2) Stimulation of Cell and Measurement of β-Hexosaminidase-secreting Activity
The cells were collected by centrifuging the suspension of the differentiated HL-60 cells (1,000 rpm, 5 minutes, 4° C.). After that, the following operation was repeated three times to wash the cells: Hepes buffered Hank's solution (HBHS) containing ice-cooled 0.1% BSA (1.2 mM CaCl2.2H2O, 5.4 mM KCl, 0.44 mM KH2PO4, 0.49 mM MgCl2.6H2O, 0.41 mM MgSO4.7H2O, 136.9 mM NaCl, 0.34 mM Na2HPO4, 10 mM Hepes, 4.2 mM NaHCO3, 5.5 mM D-glucose, pH 7.4) was added to the cells; the mixture was suspended by inversion; and the mixture was centrifuged again (1,000 rpm, 5 minutes, 4° C.). Subsequently, HBHS was added so that the mixture has a cell density of 5.6×10^6 cells/ml and suspended. Then, DNase I and cytochalasin B were each added so as to have a final concentration of 5 μg/ml, and the cell suspension was dispensed in an amount of 90 μl (5×10^5 cells) on ice. […] After the cell stimulation for 10 minutes, 100 μl of an ice-cooled stop solution (25 mM Tris, 123 mM NaCl, 2.7 mM KCl, pH 7.4) were added, and immediately, the mixture was centrifuged (5,000 rpm, 1 minute, 4° C.). 200 μl of the obtained supernatant were transferred to a new tube.
The amount of β-hexosaminidase released in the supernatant of the reaction solution was measured by an enzyme reaction using p-nitrophenyl-N-acetyl-μ-D-glucosaminide as a substrate (Non-patent Document 12). That is, the supernatant of the reaction solution was dispensed in an amount of 90 μl to a 96-well plate. 60 μl of a substrate solution (10 mM p-nitrophenyl-N-acetyl-μ-D-glucosaminide, 40 mM citrate, 70 mM Na2HPO4, pH 4.5) were added to each well, followed by incubation at 37° C. for 1 hour. After the reaction, 100 μl of a stop solution (0.4 M glycine, pH 10.7) were added to each well and a color of the released p-nitrophenol was developed. The color development was measured with a plate reader at adsorption at 405 nm (reference: 492 nm). The all amount of β-hexosaminidase contained in the cells was quantified by treating the cells with Triton X-100 having a final concentration of 0.05%. In addition, the amount of β-hexosaminidase secreted by stimulation of 10 μM fMLP was also measured, and the ratio of the secretion amount by stimulation with each peptide to the above sectretion amount by stimulation with fMLP.

[2] = tested on: differentiated HL-60 cells; experiment: migration activity (Chemotaxis Index) of differentiated HL-60 cells; format: cell-based, human
Description: (3) Measurement of Migration Activity
The cells were collected by centrifuging the suspension of the differentiated HL-60 cells (1,000 rpm, 5 minutes, 4° C.). After that, the following operation was repeated three times to wash the cells: 10% FBS-RPMI1640 was added to the cells; the mixture was suspended by inversion; and the mixture was centrifuged again (1,000 rpm, 5 minutes, 4° C.). Then, a medium (10% FBS-RPMI1640) was added so that a cell density was 4×10^6 cells/ml, thereby a cell suspension was prepared. Subsequently, 1 ml of each peptide solution (dissolved in 10% FBS-RPMI 1640) was transferred to each well of a 24-well plate, and the plate was incubated at 37° C. for 20 minutes. After that, 500 μl of the cell suspension (2×10^6 cells) were put in Chemotaxicell (KURABO […] LTD., 3 μm) and the Chemotaxicell was set in a plate, followed by incubation in the presence of 5% CO2 at 37° C. for 1 hour. Then, the Chemotaxicell was removed and the solution in each well of the plate was pipetted. The cells migrated to the plate side was suspended well and the number of the cells were measured. Note that the migration activity by the peptide was represented by a ratio of the number of the cells to the number of the cells passing the Chemotaxicell at the time of non-stimulation (Chemotaxis Index, CI).

[3] = differentiated HL-60 cells, read-out: EC50, β-hexosaminidase-secreting activity
[4] = neutrophil-like differentiated HL-60 cells, Table 1, read-out: EC50 (μM), β-hexosaminidase-secreting activity
[5] = neutrophil-like differentiated HL-60 cells

EC50 [1, 3] [µM] | EC50 [1, 4] [µM] | Molecule | concentration of migration activity compared with that of β-hexosaminidase-secreting activity [2] | desensitization of migration activity with increasing concentration of the peptide [2] | Activity (β-hexosaminidase-secreting activity class) [1, 5] | β-hexosaminidase-secreting activity of C-terminally extended peptide compared to the peptide before the extension ([1]; differentiated HL-60 cells)
0.3 |  | CC[C@H](C)[C@H](NC(=O)[C@H](CS)NC(=O)[C@H](CC(C)C)NC(=O)[C@H](CCC(N)=O)NC(=O)[C@@H]1CCCN1C(=O)[C@H](CO)NC(=O)[C@H](Cc1ccccc1)NC(=O)[C@H](Cc1c[nH]cn1)NC(=O)[C@H](C)NC(=O)[C@H](CCCNC(=N)N)NC(=O)[C@H](CC(C)C)NC(=O)[C@H](CS)NC(=O)[C@H](Cc1c[nH]cn1)NC(=O)[C@H](CCCNC(=N)N)NC(=O)CNC(=O)[C@@H](NC(=O)[C@H](Cc1c[nH]cn1)NC(=O)[C@H](CCCNC(=N)N)NC(=O)[C@H](CC(C)C)NC(=O)[C@H](CC(C)C)NC(=O)[C@H](CC(C)C)NC(=O)[C@H](C)NC(=O)[C@H](C)NC(=O)[C@@H](N)CCSC)C(C)C)C(=O)N[C@@H](CCCNC(=N)N)C(=O)N[C@@H](CC(N)=O)C(=O)N[C@@H](C)C(=O)N[C@H](C(=O)N1CCC[C@H]1C(=O)N[C@@H](CC(C)C)C(=O)O)C(C)C [No. 023] (H-MAALLLRHVGRHCLRAHFSPQLCIRNAVPL-OH; N-terminus and C-terminus assumed) | confirmed at the almost same concentration | subjected to desensitization completely |  | 
 | 5 | MAVVGVSSVSRLLGRSRPQLGRPM [compound 009] |  |  | ∘ (a peptide in which the β-hexosaminidase-secreting activity was confirmed at a concentration of 1 μM or less) | 
0.1 |  | MFPLARNALSSLKIQSILQSMARH [No. 048] | confirmed at the almost same concentration |  |  | 
 | 0.1 | MFPLARNALSSLKIQSILQSMARH [compound 048] |  |  | ⊚ (a peptide in which the β-hexosaminidase-secreting activity was confirmed at a concentration of 300 nM or less) | 
 | 0.38 | MFPLVKSALNRLQVRSIQQTMARQ [compound 015] |  |  | ⊚ (a peptide in which the β-hexosaminidase-secreting activity was confirmed at a concentration of 300 nM or less) | 
0.2 |  | MFPLVKSALNRLQVRSIQQTMARQSHQKRT [No. 031] | confirmed at the almost same concentration |  |  | higher activity compared to the peptides before the extension
 | 0.2 | MFPLVKSALNRLQVRSIQQTMARQSHQKRT [compound 031] |  |  | ⊚ (a peptide in which the β-hexosaminidase-secreting activity was confirmed at a concentration of 300 nM or less) | 
0.11 |  | MFRRPVLQVLRQFVRH [No. 037] | confirmed at the almost same concentration | subjected to desensitization completely |  | 
 | 0.11 | MFRRPVLQVLRQFVRH [compound 037] |  |  | ⊚ (a peptide in which the β-hexosaminidase-secreting activity was confirmed at a concentration of 300 nM or less) | 
 | 2 | MKLLTRAGSFSRFY [compound 040] |  |  | ⊚ (a peptide in which the β-hexosaminidase-secreting activity was confirmed at a concentration of 300 nM or less) | 
 | 6.1 | MLATRVFSLVGKRAISTSVCVR [compound 018] |  |  | ∘ (a peptide in which the β-hexosaminidase-secreting activity was confirmed at a concentration of 1 μM or less) | 
 | 1.1 | MLRLPTVFRQMRPVSRVLAPHLTRAY [compound 024] |  |  | ⊚ (a peptide in which the β-hexosaminidase-secreting activity was confirmed at a concentration of 300 nM or less) | 
 | 0.78 | MLRNLLALRQIGQRTISTASRRH [compound 012] |  |  | ∘ (a peptide in which the β-hexosaminidase-secreting activity was confirmed at a concentration of 1 μM or less) | 
 | 0.23 | MLWNLLALHQIGQRTISTASHRH [compound 019] |  |  | ⊚ (a peptide in which the β-hexosaminidase-secreting activity was confirmed at a concentration of 300 nM or less) | 
0.15 |  | MLWNLLALHQIGQRTISTASHRHFKNKVPEKQK [No. 032] | confirmed at the concentration lower than the concentration at which β-hexosaminidase-secreting activity was confirmed |  |  | higher activity compared to the peptides before the extension
 | 0.15 | MLWNLLALHQIGQRTISTASHRHFKNKVPEKQK [compound 032] |  |  | ⊚ (a peptide in which the β-hexosaminidase-secreting activity was confirmed at a concentration of 300 nM or less) | 
 | 1.7 | MQALRVSQALIRSFSSTARNR [compound 011] |  |  | ⊚ (a peptide in which the β-hexosaminidase-secreting activity was confirmed at a concentration of 300 nM or less) | 
8 |  | MSVLTPLLLRGLTGSARRLPVPRAK [No. 007] |  |  |  | 
 | 8 | MSVLTPLLLRGLTGSARRLPVPRAK [compound 007] |  |  | ∘ (a peptide in which the β-hexosaminidase-secreting activity was confirmed at a concentration of 1 μM or less) | 
6 |  | MSVLTPLLLRGLTGSARRLPVPRAKIHSLPPEGK [No. 033] |  |  |  | higher activity compared to the peptides before the extension
 | 6 | MSVLTPLLLRGLTGSARRLPVPRAKIHSLPPEGK [compound 033] |  |  | ∘ (a peptide in which the β-hexosaminidase-secreting activity was confirmed at a concentration of 1 μM or less) | 
